Measured values taken from ChEMBL document CHEMBL1201862, “PubChem BioAssay data set” (2004).
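Interpolation was linear, between the two tested concentrations surrounding the appropriate level; five concentrations were tested over 48 hours in 96-well plates. GI50 = concentration required for 50% inhibition of growth.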 Activity calls are given as the source filed them. No stated cut-off is given here; in the data, active = GI50 up to about 1.1 µM and inactive = higher.

Columns and labels:
Assay in all cases: inhibition of tumour cell growth, NCI panel, 48 h
A549 = system: A549
ACHN = system: ACHN
HCC 2998 = system: HCC 2998
HCT-116 = system: HCT-116
HOP-92 = system: HOP-92
HT-29 = system: HT-29
Malme-3M = system: Malme-3M
NCI-H522 = system: NCI-H522
OVCAR-8 = system: OVCAR-8
PC-3 = system: PC-3
RXF 393 = system: RXF 393
SF-268 = system: SF-268
SF-295 = system: SF-295
SN12C = system: SN12C
SNB-19 = system: SNB-19
SNB-75 = system: SNB-75
TK-10 = system: TK-10
U-251 = system: U-251
CAKI-1 = system: CAKI-1
SR = system: SR

Measured: GI50

C(=N\OCCc1ccccc1)/c1cccnc1
inactive: A549 > 100 µM | ACHN > 100 µM | HCC 2998 > 100 µM | HCT-116 > 100 µM | HOP-92 > 100 µM | HT-29 > 100 µM | Malme-3M > 100 µM | NCI-H522 > 100 µM | OVCAR-8 > 100 µM | PC-3 > 100 µM | RXF 393 > 100 µM | SF-268 > 100 µM | SF-295 > 100 µM | SN12C > 100 µM | SNB-19 > 100 µM | SNB-75 71.6 µM | TK-10 > 100 µM | U-251 > 100 µM

CS[C@]12[C@@H]3C(=O)N(C)C(=O)[C@@H]3[C@](C)(C(=O)N1C)C(=O)N2c1ccccc1
inactive: A549 > 100 µM | ACHN > 100 µM | CAKI-1 > 100 µM | HCC 2998 > 100 µM | HCT-116 > 100 µM | HOP-92 > 100 µM | HT-29 > 100 µM | Malme-3M > 100 µM | NCI-H522 > 100 µM | OVCAR-8 > 100 µM | PC-3 > 100 µM | RXF 393 > 100 µM | SF-268 > 100 µM | SF-295 > 100 µM | SN12C > 100 µM | SNB-19 > 100 µM | SNB-75 > 100 µM | TK-10 > 100 µM | U-251 > 100 µM

Cc1nc2c(=O)n3c4c(cccc4c2o1)CCC3
inactive: A549 > 100 µM | ACHN > 100 µM | CAKI-1 > 100 µM | HCC 2998 > 100 µM | HCT-116 43.5 µM | HOP-92 > 100 µM | HT-29 76 µM | Malme-3M > 100 µM | OVCAR-8 > 100 µM | PC-3 45.9 µM | RXF 393 > 100 µM | SF-268 > 100 µM | SF-295 > 100 µM | SN12C > 100 µM | SNB-19 > 100 µM | SNB-75 > 100 µM | TK-10 > 100 µM | U-251 96.8 µM

C(=N/Nc1ccccn1)/c1cccnc1
inactive: A549 > 100 µM | ACHN > 100 µM | CAKI-1 > 100 µM | HCC 2998 > 100 µM | HCT-116 > 100 µM | HOP-92 > 100 µM | HT-29 > 100 µM | Malme-3M 66.4 µM | NCI-H522 > 100 µM | OVCAR-8 > 100 µM | PC-3 > 100 µM | RXF 393 > 100 µM | SF-268 > 100 µM | SF-295 > 100 µM | SN12C > 100 µM | SNB-19 > 100 µM | SNB-75 58.6 µM | TK-10 > 100 µM | U-251 > 100 µM

CC(=O)N1c2ccccc2C23CCN4CC5=CCOC(O)C(C5CC42)C13 (centres undefined)
inactive: A549 > 100 µM | ACHN > 100 µM | CAKI-1 > 100 µM | HCC 2998 > 100 µM | HCT-116 > 100 µM | HOP-92 > 100 µM | HT-29 > 100 µM | Malme-3M > 100 µM | NCI-H522 > 100 µM | OVCAR-8 > 100 µM | PC-3 > 100 µM | SF-268 > 100 µM | SF-295 > 100 µM | SN12C > 100 µM | SNB-19 > 100 µM | SNB-75 > 100 µM | TK-10 > 100 µM | U-251 > 100 µM

COc1ccc(-n2c(=O)n(-c3ccccc3)c(=O)n2-c2ccc(OC)cc2)cc1
inactive: A549 > 100 µM | ACHN > 100 µM | CAKI-1 1.78 µM | HCC 2998 > 100 µM | HCT-116 > 100 µM | HOP-92 27.7 µM | Malme-3M > 100 µM | NCI-H522 > 100 µM | OVCAR-8 > 100 µM | PC-3 > 100 µM | RXF 393 > 100 µM | SF-295 > 100 µM | SN12C > 100 µM | SNB-19 > 100 µM | SNB-75 > 100 µM | TK-10 > 100 µM | U-251 > 100 µM

COc1cc(OC)c(OC)cc1/C=C/c1nc2ccccc2s1
inactive: A549 > 100 µM | ACHN > 100 µM | HCC 2998 > 100 µM | HCT-116 25.2 µM | HOP-92 6.35 µM | HT-29 38.7 µM | Malme-3M > 100 µM | NCI-H522 40.6 µM | OVCAR-8 > 100 µM | PC-3 5.78 µM | RXF 393 23.3 µM | SF-268 > 100 µM | SF-295 67 µM | SN12C > 100 µM | SNB-19 > 100 µM | SNB-75 91.4 µM | TK-10 98.2 µM | U-251 > 100 µM

O=c1ncccn1[C@@H]1O[C@H](CO)[C@H](O)C1O (some centres undefined)
inactive: A549 > 89.5 µM | ACHN > 100 µM | CAKI-1 38.8 µM | HCC 2998 40.9 µM | HCT-116 > 70.8 µM | HOP-92 > 71.3 µM | HT-29 > 95.1 µM | Malme-3M > 100 µM | NCI-H522 > 88.5 µM | OVCAR-8 > 74.5 µM | RXF 393 80.9 µM | SF-268 71.8 µM | SF-295 > 100 µM | SN12C > 77.1 µM | SNB-19 > 100 µM | SNB-75 53.8 µM | SR 43.6 µM | TK-10 > 100 µM | U-251 > 100 µM

Cc1cn(C2CC(n3cc(Cn4cc(F)c(=O)[nH]c4=O)nn3)C(CO)O2)c(=O)[nH]c1=O (centres undefined)
inactive: A549 > 100 µM | ACHN > 100 µM | CAKI-1 > 100 µM | HCC 2998 > 100 µM | HCT-116 > 100 µM | HOP-92 > 100 µM | Malme-3M > 100 µM | OVCAR-8 > 100 µM | PC-3 > 100 µM | RXF 393 > 100 µM | SF-268 > 100 µM | SF-295 > 100 µM | SN12C > 100 µM | SNB-19 > 100 µM | SNB-75 > 100 µM | TK-10 > 100 µM | U-251 > 100 µM

COC(=O)c1cc(C)ccc1C1CN=NC12Cc1c(C)cc(C)cc1C2=O (centres undefined)
inactive: A549 26.7 µM | ACHN 40.5 µM | CAKI-1 31.4 µM | HCC 2998 26.5 µM | HCT-116 14.7 µM | HOP-92 13.8 µM | HT-29 18.3 µM | Malme-3M 11.8 µM | NCI-H522 13.6 µM | OVCAR-8 33.8 µM | PC-3 27.5 µM | RXF 393 22.2 µM | SF-268 20.8 µM | SF-295 23.2 µM | SN12C 28.6 µM | SNB-19 31 µM | SNB-75 23.9 µM | TK-10 34.1 µM | U-251 27 µM

OC(CCN1CCCCC1)(c1ccccc1)c1ccccc1 [PRIDINOL]
inactive: A549 > 100 µM | ACHN > 100 µM | CAKI-1 > 100 µM | HCT-116 > 100 µM | HOP-92 32.4 µM | HT-29 55 µM | Malme-3M > 100 µM | NCI-H522 > 100 µM | OVCAR-8 > 100 µM | PC-3 > 100 µM | RXF 393 > 100 µM | SF-268 > 100 µM | SF-295 > 100 µM | SN12C > 100 µM | SNB-19 > 100 µM | TK-10 > 100 µM | U-251 > 100 µM
